Measured values taken from patent US20260374818A1, “CATIONIC PEPTIDES WITH BROAD SPECTRUM ACTIVITY” (priority 2023, published 2026).
Converted amounts (≈) assume the structure as drawn. Where a SMILES comes first, the peptide text is derived from it. [ ]: non-standard residue; d: D form.

How the values were obtained:
[1] = system: Enterobacter cloacae 218R1; assay: Biofilm inhibition (at least 80%), E. cloacae; format: cell-based; conditions: E. cloacae 218R1; n = 3; BM2 minimal media; 18-24 hours; crystal violet
MRSA USA300 = assay: Biofilm inhibition (at least 80%), MRSA; format: cell-based, methicillin resistant Staphylococcus aureus; conditions: n = 4, 10% TSB + 0.1% glucose, 18-24 hours, crystal violet
[2] = system: Acinetobacter baumannii Ab5075; assay: Biofilm inhibition (at least 80%), A. baumannii; format: cell-based; conditions: n = 4, BM2 minimal media, 18-24 hours, crystal violet
[3] = system: Klebsiella pneumonia KPLN649; assay: Biofilm inhibition (at least 80%), K. pneumonia; format: cell-based; conditions: K. pneumoniae KPLN649; n = 3; BM2 minimal media; 48 hours; crystal violet
E. coli O157:H7 = assay: Biofilm inhibition (at least 80%), E. coli; format: cell-based, Escherichia coli; conditions: n = 3, BM2 minimal media, 18-24 hours, crystal violet
[4] = system: Enterococcus faecium #2-1; assay: Biofilm inhibition (at least 80%), E. faecium; format: cell-based; conditions: E. faecium #2-1; n = 3; TSB + 1% glucose; 48 hours; crystal violet
P. aeruginosa PAO1 [5] = assay: Biofilm inhibition (at least 80%), P. aeruginosa; format: cell-based, Pseudomonas aeruginosa; conditions: n = 4, BM2 minimal media, 18-24 hours, crystal violet
P. aeruginosa PAO1 [6] = assay: MIC (broth microdilution) of peptides, P. aeruginosa; format: cell-based, Pseudomonas aeruginosa; conditions: mode of three biological replicates
Method: (§1) Minimal inhibitory concentration (MIC) against planktonic bacteria: The MIC of the synthetic peptides was determined in Mueller-Hinton broth (MHB) using the broth microdilution method described previously [Wiegand, I., Hilpert, K., & Hancock, R. E. (2008). Agar and broth dilution methods to determine the minimal inhibitory concentration (MIC) of antimicrobial substances. Nature Protocols, 3(2), 163-175]. Briefly, 10 μl of a 10× concentrated peptide solution was placed in the bottom of a well in a 96-well polypropylene round bottom plate (Corning Inc.). A bacterial suspension of ~5×10^5 CFU/ml was prepared from an overnight culture and 90 μl of this was added to each well. […] Bacteria tested included P. aeruginosa PAO1, MRSA USA300 LAC, Staphylococcus haemolyticus, Staphylococcus epidermidis, Klebsiella pneumoniae and Streptococcus salivarius.
(§2) Finally, the AB103-D derivatives that were the least aggregation prone and which produced the lowest toxic effects in vivo were evaluated for their direct antibacterial activity towards several pathogens of clinical relevance using a standard minimum inhibitory concentration (MIC) assay [Wiegand, I., Hilpert, K., & Hancock, R. E. (2008). Agar and broth dilution methods to determine the minimal inhibitory concentration (MIC) of antimicrobial substances. Nature Protocols, 3(2), 163-175]. Specifically, peptides AB110-D, AB111-D, AB114-D and AB115-D were tested against P. aeruginosa PAO1, MRSA USA 300, Staphylococcus haemolyticus, Staphylococcus epidermidis, Klebsiella pneumoniae and Streptococcus salivarius and compared against the antibacterial activity of DJK-5 and AB103-D (Table 7). Overall, the antibacterial potency of all of the AB103-D derivatives was stronger than that seen for DJK-5, particularly in the case of the Gram-negative pathogens P. aeruginosa and K. pneumoniae. […]

[7] = system: P. aeruginosa PAO1 biofilms; conditions: P. aeruginosa PAO1 biofilms; >95% pure peptides; crystal violet; BM2 minimal media
MRSA USA 300 = assay: MIC (broth microdilution) of peptides, MRSA; format: cell-based, methicillin resistant Staphylococcus aureus; conditions: MRSA USA300; mode of three biological replicates
Method: as §1, §2

[8] = Subdermal murine toxicity model; conditions: 16 hours after administration, 4 mg/kg
Method: FIGS. 14A-14B show murine subdermal toxicity assessment of AB103-D derived peptides. Clinical scores were recorded for each peptide treated mouse one hour after peptide administration (FIG. 14A). […] The presence of a cyst or lesion was recorded 16 hours after peptide administration and the size of the cyst was measured using calipers (FIG. 14B). Data shown are the mean of two independent replicates at a peptide dose of 4 mg/kg.
Subdermal murine toxicity model: A subdermal toxicity mouse model was used to evaluate whether peptides induced localized toxicity of treated cutaneous tissue. Mice were anesthetized with 2.5-3% isoflurane and their fur was removed by shaving followed by application of a chemical depilatory. […] Mice were visually assessed and received clinical scores for a battery of signs or symptoms (activity/behaviour change, appearance/grooming, hydration, pain, cyst formation), for which a score of zero was given to animals that appeared normal. Animals were weighed and clinical scores were totalled. Following an overnight (16 h) incubation, mice were scored and weighed then euthanized with CO2 followed by cervical dislocation. Mice were imaged and cysts (swollen, inflamed tissue) were measured using a caliper. Animal experiments were performed in accordance with the Canadian Council on Animal Care (CCAC) guidelines and were approved by the University of British Columbia Animal Care Committee. Female CD-1 mice were purchased from Charles River Laboratories, Inc. (Wilmington, MA). All mice were 8 weeks of age and weighed 25±5 g at the time of the experiment. Animals were group housed in cohorts of three to four littermates. Standard animal husbandry practices were employed.

[9] = system: P. aeruginosa PAO1 biofilms; assay: Biofilm inhibition by SPOT-synthesized AB103-D variants (crystal violet), P. aeruginosa; format: cell-based, Pseudomonas aeruginosa; conditions: P. aeruginosa PAO1, SPOT peptides
MRSA USA300 biofilms = assay: Biofilm inhibition by >95% pure peptides (crystal violet), MRSA; format: cell-based, methicillin resistant Staphylococcus aureus; conditions: MRSA USA300 biofilms, >95% pure peptides, 10% TSB + 0.1% glucose
[10] = system: Staphylococcus haemolyticus; assay: MIC (broth microdilution) of peptides, S. haemolyticus; format: cell-based; conditions: mode of three biological replicates
Method: as §1, §2

With `CN[C@H](CC(C)C)C(=O)N[C@H]1C(=O)N[C@@H](CC(N)=O)C(=O)N[C@H]2C(=O)N[C@H]3C(=O)N[C@H](C(=O)N[C@H](C(=O)O)c4cc(O)cc(O)c4-c4cc3ccc4O)[C@H](O)c3ccc(c(Cl)c3)Oc3cc2cc(c3O[C@@H]2O[C@H](CO)[C@@H](O)[C@H](O)[C@H]2O[C@H]2C[C@](C)(N)[C@H](O)[C@H](C)O2)Oc2ccc(cc2Cl)[C@H]1O` [VAN] the “Peptide/Antibiotic Concentration where at least 80% of biofilm growth was inhibited” value [1] was 64 µg/mL, the “Peptide/Antibiotic Concentration where at least 80% of biofilm growth was inhibited” value (MRSA USA300) was 0.25 µg/mL and the “Peptide/Antibiotic Concentration where at least 80% of biofilm growth was inhibited” value [2] was 8 µg/mL. For the same compound, the “Peptide/Antibiotic Concentration where at least 80% of biofilm growth was inhibited” value [3] was 128 µg/mL, the “Peptide/Antibiotic Concentration where at least 80% of biofilm growth was inhibited” value (E. coli O157:H7) was 16 µg/mL and the “Peptide/Antibiotic Concentration where at least 80% of biofilm growth was inhibited” value [4] was over 256 µg/mL. For the same compound, the “Peptide/Antibiotic Concentration where at least 80% of biofilm growth was inhibited” value (P. aeruginosa PAO1 [5]) was over 256 µg/mL.

For `O=C(O)c1cn(C2CC2)c2cc(N3CCNCC3)c(F)cc2c1=O` [CIP], the “Peptide/Antibiotic Concentration where at least 80% of biofilm growth was inhibited” value (MRSA USA300) was 8 µg/mL, the “Peptide/Antibiotic Concentration where at least 80% of biofilm growth was inhibited” value [2] was 32 µg/mL and the “Peptide/Antibiotic Concentration where at least 80% of biofilm growth was inhibited” value (E. coli O157:H7) was 0.0625 µg/mL. For the same compound, the “Peptide/Antibiotic Concentration where at least 80% of biofilm growth was inhibited” value (P. aeruginosa PAO1 [5]) was 0.125 µg/mL.

For `CC[C@@H](C)[C@@H](NC(=O)[C@@H](C)NC(=O)[C@@H](CCCNC(=N)N)NC(=O)[C@@H](Cc1c[nH]c2ccccc12)NC(=O)[C@@H](CCC(N)=O)NC(=O)[C@H](NC(=O)[C@@H](CCCNC(=N)N)NC(=O)[C@H](NC(=O)[C@@H](Cc1c[nH]c2ccccc12)NC(=O)[C@@H](CCCNC(=N)N)NC(=O)[C@H](NC(=O)[C@H](N)CCCNC(=N)N)C(C)C)[C@H](C)CC)C(C)C)C(N)=O` [AB110-D, rvrwirvqwrai] (H-[dR][dV][dR][dW][dI][dR][dV][dQ][dW][dR][dA][dI]-NH2), the MIC (P. aeruginosa PAO1 [6]) was 2 µg/mL (≈ 1.22 µM), the “minimum inhibitory concentration of peptide that inhibited at least 90% of biofilm growth (MBIC90)” value [7] was 4 µM and the MIC (MRSA USA 300) was 0.8 µg/mL (≈ 0.488 µM). For the same compound, the “Average cyst size compared to DJK-5” value [8] was “smaller than those induced by DJK-5”, the “Activity against PAO1 biofilms compared to AB103-D” value [9] was “activity superior to that of AB103-D” and the “minimum inhibitory concentration of peptide that inhibited at least 90% of biofilm growth (MBIC90)” value (MRSA USA300 biofilms) was 1 µM. For the same compound, the MIC [10] was 0.8 µg/mL (≈ 0.488 µM).
